In patent US11091460B2, “Syk inhibitor and use method therefor” (CHIA TAI TIANQING PHARMACEUTICAL GROUP CO., LTD., priority 2017, dated 2021):
Read-outs that look alike come from different tables or passages of the source.

Assays:
SYK kinase = biological target: T1, SYK kinase (Homo sapiens, UniProt P43405); assay: In vitro test of the inhibition effect on SYK kinase (HTRF); type: biochemical; conditions: tyrosine kinase 0.0156 ng/μL, substrate 0.2 uM, ATP 2 uM, 23° C. 1 hour, read-out: Inhibit SYK kinase IC50
T1 construct: purchased Invitrogen PV3857
Method: Experimental Example 1: In Vitro Test of the Inhibition Effect of the Example Compounds on SYK Kinase
Adenosine triphosphate concentration was controlled at 2 uM. • 4) Loaded with a Multidrop automatic dispenser, and a mixture of tyrosinase solution and tyrosine kinase-substrate-biotin/adenosine triphosphate was added in an amount of 5 ul per well, and incubated at 23° C. for 1 hour. • c) Detection phase: • 1) Added 13.33 mL of ethylenediaminetetraacetic acid solution to the Detection Buffer in the kit, added the specified amount of […] (Eu)-labeled antibody and streptavidin XL-665, and prepared the detection solution. • 2) Loaded with a Multidrop automatic dispenser, and 10 uL of the detection solution per well, incubated at 23° C. for 1 hour. It terminated the reaction of the enzyme and substrate mixture. • 3) Reading after centrifugation on a multi-function microplate reader, • d) Data Analysis: Analyzed the data with XL-Fit, and calculated the IC50 value of the compound.

AKT phosphorylation = assay: In vitro test of the inhibition effect on AKT phosphorylation (ELISA, Ramos cells); type: cell-based
Method: Experimental Example 2: In Vitro Test of the Inhibition Effect of the Example Compounds on AKT Phosphorylation
• 2.1 Experimental Purpose: Intracellular protein kinase AKT phosphorylation detected by experiment was measured by enzyme-linked immunosorbent assay (ELISA), and the inhibition of the compound on protein kinase AKT phosphorylation was evaluated by an index of the half-cell inhibition concentration (IC50) value of the compound. • 2.2 Experimental Materials: • Cell line: Ramos cell line • Cell culture medium (RPMI1640, Invitrogen #22400-105; 10% serum Gibco #10099-141; L-glutamine 1×, Gibco #25030-081) • Experimental medium (without serum, RPM11640, Invitrogen #22400-105; L-glutamine 1×, Gibco #25030) • Lysis buffer (trishydroxymethylaminomethane hydrochloride, Invitrogen15567-1000 ml; sodium chloride, domestic; sodium deoxycholate, Sigma30970-25 G; polyethylene glycol octylphenyl ether, SigmaT9284-100 ml; dodecane sodium sulfonate, SigmaL3771; ethylenediaminetetraacetic acid, Invitrogen15575-038-100 ml; ultrapure water, MilliQ) • Protease inhibitor (Roche, 4693159001-30/BOX) • Phosphatase inhibitor mixture 2 (Sigma, P5726-5 ML) • Phosphatase inhibitor mixture 3 (Sigma, P0044-5 ML) • Goat Anti-Human immunoglobulin M (F(ab′)2 Goat Anti-Human IgM) (Jackson Immuno Research-109-006-129) • Phosphorylated AKT assay kit (Phospho-AKT 1/2/3 (ser473)) (TGR Bioscience, EKT002) • 10× Hank's balanced salt solution (Gibco #14065-056) • 96-well cell plate (Greiner #655090) • Compound V-well dilution plate (Axygen #WITP02280) • CO2 incubator (Thermo #371) • Centrifuge (Eppendorf #581 OR) • Vi-cell cell counter (Beckman Coulter) • Pipette (Eppendorf) • Pipette (Greiner) • Pipetting gun (Eppendorf) • Multi-purpose microplate reader (Envision Reader) • 2.3 Experimental procedures and methods: • a) Cell Seeding (Ramos Cells) • 1) The medium was preheated in a 37° C. water bath. Suspended cells and their culture solution were aspirated, centrifuged at 1000 rpm for 5 minutes. • 2) Aspirated the cell culture medium, added 10 mL of pre-warmed medium to the centrifuge tube, blew off the resuspended cells, pipette 1 mL of the cell suspension, and counted with Vi-cell; • 3) The Ramos cells were diluted with a medium to a density of 5×10^6/mL, and the diluted cells were added to a 96-well cell culture plate (100 μL/well) using a lance. Placed the cell plates in a 37° C., 5% CO2 incubator for overnight. • b) Cell starvation: • 1) After cultured the inoculation cells for overnight, centrifuged at 1000 rpm for 5 minutes on the next day, aspirated the original medium by a lance, added serum-free experimental medium, placed the cell plates in a 37° C., 5% CO2 incubator, and starved for overnight. • c) Compound preparation and dosing: • 1) The compound was diluted with dimethyl sulfoxide to give an initial concentration of 5 mM. A triple gradient dilution was done with compound V dilution plate to make 10 concentration points. • 2) Took another new compound V-well dilution plate, added 198 ul of serum-free experimental medium to each well, and then added 2 ul of the diluted compound above to each well, and mixed with a lance. […]

[1] = Homo sapiens, Ramos, Ramos cell line, compound 1 hour, goat anti-human IgM 10 ug/ml for 10 minutes, Phospho-AKT 1/2/3 (ser473) ELISA, read-out: Inhibit AKT phosphorylation IC50
[2] = Ramos cell line, compound 1 hour, goat anti-human IgM 10 ug/ml for 10 minutes, Phospho-AKT 1/2/3 (ser473) ELISA, read-out: Inhibit AKT phosphorylation IC50
[3] = Homo sapiens, Ramos, read-out: Inhibit AKT phosphorylation IC50 (nM)

SMILES: Cn1c(=O)c(Nc2ccc(C(C)(O)C(F)(F)F)cn2)cc2c(F)c(-c3cc[nH]n3)ccc21 (single isomer, unassigned) [Example 24, 5-Fluoro-1-methyl-6-(1H-pyrazol-3-yl)-3-((5-(1,1,1-trifluoro-2-hydroxypropan-2-yl)pyridine-2-yl)amino)quinoline-2(1H)-one]
- IC50 (SYK kinase): 12.3 nM
- IC50 (AKT phosphorylation; [1]): 175 nM

SMILES: Cn1c(=O)c(Nc2ccc(C(C)(O)C(F)(F)F)cn2)cc2c(F)c(-c3cc[nH]n3)ccc21 (single isomer, unassigned) [Example 25, 5-Fluoro-1-methyl-6-(1H-pyrazol-3-yl)-3-((5-(1,1,1-trifluoro-2-hydroxypropan-2-yl)pyridine-2-yl)amino)quinoline-2(1H)-one]
- IC50 (SYK kinase): 8.9 nM
- IC50 (AKT phosphorylation; [2]): 121 nM

SMILES: Cn1c(=O)c(Nc2ccc(N3CCOCC3)cc2)cc2cc(-c3cc[nH]n3)ccc21 [Example 1, 1-Methyl-3-((4-morpholinephenyl)amino)-6-(1H-pyrazol-3-yl) quinoline-2(1H)-one]
- IC50 (SYK kinase): 33.8 nM
- IC50 (AKT phosphorylation; [2]): 248 nM

SMILES: Cn1c(=O)c(Nc2ccc(N3CCOCC3)cn2)cc2cc(-c3cc[nH]n3)ccc21 [Example 2, 1-Methyl-3-((5-morpholinepyridin-2-yl)amino)-6-(1H-pyrazol-3-yl)quinoline-2(1H)-one]
- IC50 (SYK kinase): 204 nM
- IC50 (AKT phosphorylation; [2]): 750 nM

SMILES: Cn1c(=O)c(Nc2ccc(C3CCOCC3)cn2)cc2cc(-c3cc[nH]n3)ccc21 [Example 3]
- IC50 (SYK kinase): 40.7 nM
- IC50 (AKT phosphorylation; [1]): 323 nM

SMILES: Cn1c(=O)c(Nc2ccc(N3CCN(C4COC4)CC3)cn2)cc2cc(-c3cc[nH]n3)ccc21 [Example 4, 1-Methyl-3-[[5-(4-(oxetan-3-yl)piperazin-1-yl]pyridin-2-yl]amino]-6-(1H-pyrazol-3-yl)quinoline-2(1H)-one]
- IC50 (SYK kinase): 34.3 nM
- IC50 (AKT phosphorylation; [1]): 585 nM

SMILES: Cn1c(=O)c(Nc2ccc(N3CCOCC3)cn2)cc2cc(-c3cc[nH]n3)c(F)cc21 [Example 6, 7-Fluoro-1-methyl-3-((5-morpholinepyridin-2-yl)amino)-6-(1H-pyrazol-3-yl)quinoline-2(1H)-one]
- IC50 (SYK kinase): 21.1 nM
- IC50 (AKT phosphorylation; [3]): 446 nM

SMILES: Cn1c(=O)c(Nc2ccc(N3CCOCC3)cn2)cc2c(Cl)c(-c3cc[nH]n3)ccc21 [Example 7, 5-Chloro-1-methyl-3-((5-morpholinepyridin-2-yl)amino)-6-(1H-pyrazol-3-yl)quinoline-2(1H)-one]
- IC50 (SYK kinase): 10.3 nM
- IC50 (AKT phosphorylation; [1]): 211 nM

SMILES: Cn1c(=O)c(Nc2ccc(N3CCOCC3)cn2)cc2c(F)c(-c3cc[nH]n3)c(F)cc21 [Example 8, 5,7-Difluoro-1-methyl-3-((5-morpholinopyridin-2-yl)amino)-6-(1H-pyrazol-3-yl)quinoline-2(1H)-one]
- IC50 (SYK kinase): 54.6 nM
- IC50 (AKT phosphorylation; [1]): 188 nM

SMILES: Cn1c(=O)c(Nc2ccc(N3CCN(C4COC4)CC3)cn2)cc2c(F)c(-c3cc[nH]n3)ccc21 [Example 9, 5-Fluoro-1-methyl-3-((5-(4-(oxetan-3-yl)piperazin-1-yl)pyridin-2-yl)amino)-6-(1H-pyrazol-3-yl)quinoline-2(1H)-one]
- IC50 (SYK kinase): 12 nM
- IC50 (AKT phosphorylation; [1]): 170 nM

SMILES: Cn1c(=O)c(Nc2ccc(N3CCC(O)(C(F)(F)F)CC3)cn2)cc2c(F)c(-c3cc[nH]n3)ccc21 [Example 10, 5-Fluoro-3-[[5-[4-hydroxy-4-(trifluoromethyl)piperidin-1-yl]pyridin-2-yl]amino]-1-methyl-6-(1H-pyrazol-3-yl)quinoline-2(1H)-one]
- IC50 (SYK kinase): 30 nM
- IC50 (AKT phosphorylation; [1]): 343 nM

SMILES: Cn1c(=O)c(Nc2ccc(N3CCOCC3)cn2)cc2c(F)c(-c3cc[nH]n3)ccc21 [Example 11, 5-Fluoro-1-methyl-3-((5-morpholinopyridin-2-yl)amino)-6-(1H-pyrazol-3-yl)quinoline-2(1H)-one]
- IC50 (SYK kinase): 15 nM
- IC50 (AKT phosphorylation; [1]): 230 nM

SMILES: Cn1c(=O)c(Nc2ccc(N3CCC4(CC3)COC4)cn2)cc2c(F)c(-c3cc[nH]n3)ccc21 [Example 12, 5-Fluoro-1-methyl-3-[[5-(2-oxazole-7-azaspiro[3.5]nonane-7-yl)pyridin-2-yl]amino]-6-(1H-pyrazol-3)quinoline-2(1H)-one]
- IC50 (SYK kinase): 114 nM
- IC50 (AKT phosphorylation; [1]): 750 nM

SMILES: Cn1c(=O)c(Nc2ccccn2)cc2c(F)c(-c3cc[nH]n3)ccc21 [Example 15, 5-Fluoro-1-methyl-6-(1H-pyrazol-3-yl)-3-(pyridin-2-amine)-quinoline-2(1H)-one]
- IC50 (SYK kinase): 101 nM
- IC50 (AKT phosphorylation; [1]): 425 nM

SMILES: Cn1c(=O)c(Nc2ccc(N)cn2)cc2c(F)c(-c3cc[nH]n3)ccc21 [Example 16, 3-((5-Aminopyridin-2-yl)amino)-5-fluoro-1-methyl-6-(1H-pyrazol-3-yl)quinoline-2(1H)-one]
- IC50 (SYK kinase): 47.9 nM
- IC50 (AKT phosphorylation; [1]): 197 nM

SMILES: Cn1c(=O)c(Nc2ccc(N3CCCC(C)(C(=O)O)C3)cn2)cc2c(F)c(-c3cc[nH]n3)ccc21 (stereo not shown) [Example 17, 1-(6-((5-Fluoro-1-methyl-2-oxo-6-(1H-pyrazol-3-yl)-1,2-dihydroquinolin-3-yl)amine)pyridine-3-yl)-3-pipecoline-3-carboxylic acid]
- IC50 (SYK kinase): 24.9 nM
- IC50 (AKT phosphorylation; [1]): 255 nM

SMILES: Cn1c(=O)c(Nc2ccc(N3CCC[C@@H](C(=O)O)C3)cn2)cc2c(F)c(-c3cc[nH]n3)ccc21 [Example 18, (3R)-1-[6-[[5-fluoro-1-methyl-2-oxa-6-(1H-pyrazol-3-yl)-1,2-dihydroquinolin-3-yl)amino]pyridin-3-yl]piperidine-3-carboxylic acid]
- IC50 (SYK kinase): 26 nM
- IC50 (AKT phosphorylation; [1]): 844 nM

SMILES: Cn1c(=O)c(Nc2ccc(N3CCC[C@H](C(=O)O)C3)cn2)cc2c(F)c(-c3cc[nH]n3)ccc21 [Example 19, (3S)-1-[6-[[5-fluoro-1-methyl-2-oxa-6-(1H-pyrazol-3-yl)-1,2-dihydroquinolin-3-yl)amine]pyridin-3-yl]piperidine-3-carboxylic acid]
- IC50 (SYK kinase): 14.3 nM
- IC50 (AKT phosphorylation; [1]): 388 nM

SMILES: Cn1c(=O)c(Nc2ccc(C(C)(C)O)cn2)cc2c(F)c(-c3cc[nH]n3)ccc21 [Example 20]
- IC50 (SYK kinase): 12.7 nM
- IC50 (AKT phosphorylation; [1]): 63 nM

SMILES: Cn1c(=O)c(Nc2ccc(C3(O)CCC3)cn2)cc2c(F)c(-c3cc[nH]n3)ccc21 [Example 21]
- IC50 (SYK kinase): 22 nM
- IC50 (AKT phosphorylation; [3]): 200 nM

SMILES: Cn1c(=O)c(Nc2ccc(C3(F)COC3)cn2)cc2c(F)c(-c3cc[nH]n3)ccc21 [Example 23, 5-Fluoro-3-[[5-(3-fluorooxetan-3-yl)pyridin-2-yl]amino]-1-methyl-6-(1H-pyrazol-3-yl)quinoline-2(1H)-one]
- IC50 (SYK kinase): 26.9 nM
- IC50 (AKT phosphorylation; [1]): 169 nM

SMILES: Cn1c(=O)c(Nc2ccc(N3CCOCC3)cc2)nc2ccc(-c3cn[nH]c3)cc21 [Example 26, 1-Methyl-3-((4-morpholinephenyl)amino)-7-(1H-pyrazol-4-yl)quinoxaline-2(1H)-one]
- IC50 (SYK kinase): 4.2 nM
- IC50 (AKT phosphorylation; [1]): 50 nM

SMILES: Cc1[nH]ncc1-c1ccc2nc(Nc3ccc(N4CCOCC4)cc3)c(=O)n(C)c2c1 [Example 29, 1-Methyl-7-(5-methyl-1H-pyrazol-4-yl)-3-((4-morpholinephenyl)amino)quinoxaline-2(1H)-one]
- IC50 (SYK kinase): 61 nM
- IC50 (AKT phosphorylation; [1]): 233 nM
